Test results taken from ChEMBL document CHEMBL1201862, “PubChem BioAssay data set” (2004).
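How tested: cells in 96-well plates exposed to compound for 48 hours at five concentrations. GI50 is the concentration that inhibits growth by half.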 Active and inactive are the calls of the source. No stated cut-off is given here; in the data, active = GI50 up to about 1.1 µM and inactive = higher.

How the values were obtained:
Assay in all cases: NCI tumour cell line growth inhibition, 48 h
SN12C = test system: SN12C
NCI/ADR-RES = test system: NCI/ADR-RES
UACC-257 = test system: UACC-257
KM12 = test system: KM12
SW-620 = test system: SW-620
NCI-H23 = test system: NCI-H23
SK-MEL-5 = test system: SK-MEL-5
RXF 393 = test system: RXF 393
COLO 205 = test system: COLO 205
CCRF-CEM = test system: CCRF-CEM
UO-31 = test system: UO-31
OVCAR-3 = test system: OVCAR-3
MOLT-4 = test system: MOLT-4
SNB-75 = test system: SNB-75
OVCAR-5 = test system: OVCAR-5
M14 = test system: M14
CAKI-1 = test system: CAKI-1
BT-549 = test system: BT-549
NCI-H522 = test system: NCI-H522

SMILES | GI50 (SN12C) | GI50 (NCI/ADR-RES) | GI50 (UACC-257) | GI50 (KM12) | GI50 (SW-620) | GI50 (NCI-H23) | GI50 (SK-MEL-5) | GI50 (RXF 393) | GI50 (COLO 205) | GI50 (CCRF-CEM) | GI50 (UO-31) | GI50 (OVCAR-3) | GI50 (MOLT-4) | GI50 (SNB-75) | GI50 (OVCAR-5) | GI50 (M14) | GI50 (CAKI-1) | GI50 (BT-549) | GI50 (NCI-H522)
O=C(c1cccs1)c1nccc2c1cnc1ccccc12 | > 100 µM (inactive) | > 100 µM (inactive) | > 100 µM (inactive) | > 100 µM (inactive) | > 100 µM (inactive) | 92.7 µM (inactive) | > 100 µM (inactive) | 0.0113 µM (active) | > 100 µM (inactive) | > 100 µM (inactive) | > 100 µM (inactive) | > 100 µM (inactive) | > 100 µM (inactive) | 43.7 µM (inactive) | > 100 µM (inactive) | > 100 µM (inactive) | 41.5 µM (inactive) |  | 
CCC(C)NC(=S)N/N=C(\C)c1ccccn1 (stereo not given) | 0.893 µM (active) | < 0.01 µM (active) | < 0.01 µM (active) | 0.156 µM (active) | < 0.0132 µM (active) | < 0.021 µM (active) | 0.155 µM (active) | < 0.01 µM (active) | < 0.01 µM (active) | < 0.01 µM (active) | 0.142 µM (active) | < 0.01 µM (active) | < 0.01 µM (active) | 0.452 µM (active) | 0.0991 µM (active) | 0.0372 µM (active) | < 0.01 µM (active) | 0.444 µM (active) | 
Cc1nc2c(=O)[nH]ncc2[nH]1 | > 100 µM (inactive) | > 100 µM (inactive) | > 100 µM (inactive) | 84.1 µM (inactive) | > 100 µM (inactive) | > 100 µM (inactive) | > 100 µM (inactive) | > 100 µM (inactive) | > 100 µM (inactive) | > 100 µM (inactive) | > 100 µM (inactive) | > 100 µM (inactive) | > 100 µM (inactive) | 0.968 µM (active) | > 100 µM (inactive) | > 100 µM (inactive) | > 100 µM (inactive) | > 100 µM (inactive) | 
Cc1ccc(NC(=O)c2cc3ccccc3c(/N=N\c3ccccc3O)c2O)c(C)c1 |  | 1.54 µM (inactive) | 4.75 µM (inactive) | 1.45 µM (inactive) | 1.69 µM (inactive) |  | 1.03 µM (active) | 3.67 µM (inactive) | 3.02 µM (inactive) | 0.818 µM (active) |  | 0.37 µM (active) | 1.25 µM (inactive) | 0.053 µM (active) | 3.1 µM (inactive) | 0.839 µM (active) | 1.19 µM (inactive) |  | 1.01 µM (active)
CCN1CCC(O)(/C=C/c2cccc(C)c2)C(C(=O)/C=C/c2cccc(C)c2)C1 (stereo not given) | 2.47 µM (inactive) | 2.19 µM (inactive) | 2.53 µM (inactive) | 1.56 µM (inactive) | 2.29 µM (inactive) | 2.21 µM (inactive) | 1.88 µM (inactive) | 1.67 µM (inactive) | 1.95 µM (inactive) | 1.57 µM (inactive) | 1.69 µM (inactive) | 3.48 µM (inactive) | 2.43 µM (inactive) | 2.09 µM (inactive) | 2.64 µM (inactive) | 2.58 µM (inactive) | 2 µM (inactive) |  | 2.21 µM (inactive)
CC1(c2ccccc2)N=c2[nH]cnc2=C(C(N)=O)N1 (stereo not given) | > 100 µM (inactive) | > 100 µM (inactive) | > 100 µM (inactive) | > 100 µM (inactive) | > 100 µM (inactive) | > 100 µM (inactive) | > 100 µM (inactive) | > 100 µM (inactive) | > 100 µM (inactive) | > 100 µM (inactive) |  | > 100 µM (inactive) |  | > 100 µM (inactive) | > 100 µM (inactive) | > 100 µM (inactive) | > 100 µM (inactive) |  | > 100 µM (inactive)
Cc1[nH]c2ccccc2c1C1=CC(=O)N(c2ccccc2)C1=O | 13.8 µM (inactive) | 20.2 µM (inactive) | 13.1 µM (inactive) |  | 5.38 µM (inactive) | 12.1 µM (inactive) | 8 µM (inactive) | 6.67 µM (inactive) | 17.7 µM (inactive) | 8.45 µM (inactive) | 19 µM (inactive) | 9.53 µM (inactive) | 36.2 µM (inactive) |  | 23.1 µM (inactive) | 13.6 µM (inactive) | 6.22 µM (inactive) | 5.31 µM (inactive) | 
COc1ccc(OC)c(C#Cc2ccc(OC)c(C(=O)NCCc3ccc(F)cc3)c2)c1 |  | 7.8 µM (inactive) | > 100 µM (inactive) | 4.13 µM (inactive) | 4.02 µM (inactive) | > 100 µM (inactive) | 4.42 µM (inactive) |  | 5.22 µM (inactive) |  | 28.3 µM (inactive) |  | 2.19 µM (inactive) |  | > 100 µM (inactive) | 5.53 µM (inactive) | > 100 µM (inactive) | > 100 µM (inactive) | 2.25 µM (inactive)
CCCCCC(=O)CCCCCCCC(O)CC(=O)OCC (stereo not given) | > 100 µM (inactive) | > 100 µM (inactive) | > 100 µM (inactive) | > 100 µM (inactive) | > 100 µM (inactive) | > 100 µM (inactive) | > 100 µM (inactive) |  |  | > 100 µM (inactive) | > 100 µM (inactive) | > 100 µM (inactive) | > 100 µM (inactive) |  | > 100 µM (inactive) | > 100 µM (inactive) | > 100 µM (inactive) | 37.8 µM (inactive) | > 100 µM (inactive)
CSc1cc(Cl)c(C)cc1S(=O)(=O)NC(=O)NNc1ccc(F)c(Cl)c1 | > 100 µM (inactive) | > 100 µM (inactive) |  | > 100 µM (inactive) | > 100 µM (inactive) |  | > 100 µM (inactive) | > 100 µM (inactive) | > 100 µM (inactive) | 54.3 µM (inactive) |  | > 100 µM (inactive) | 45.7 µM (inactive) | > 100 µM (inactive) | > 100 µM (inactive) | > 100 µM (inactive) | > 100 µM (inactive) |  | > 100 µM (inactive)
O=C1C=C(N2CCN(c3ncccn3)CC2)C(=O)c2c(O)ccc(O)c21 | > 100 µM (inactive) | > 100 µM (inactive) | > 100 µM (inactive) | > 100 µM (inactive) | > 100 µM (inactive) | > 100 µM (inactive) | 21.5 µM (inactive) |  | > 100 µM (inactive) | > 100 µM (inactive) | > 100 µM (inactive) | > 100 µM (inactive) | > 100 µM (inactive) |  | > 100 µM (inactive) | > 100 µM (inactive) | > 100 µM (inactive) | > 100 µM (inactive) | > 100 µM (inactive)
CC(C)(C)CC(C)(C)NC(=S)NO | > 100 µM (inactive) | > 100 µM (inactive) | > 100 µM (inactive) | > 100 µM (inactive) | > 100 µM (inactive) | > 100 µM (inactive) | > 100 µM (inactive) | > 100 µM (inactive) | > 100 µM (inactive) | > 100 µM (inactive) | > 100 µM (inactive) | > 100 µM (inactive) | > 100 µM (inactive) | > 100 µM (inactive) | > 100 µM (inactive) | > 100 µM (inactive) | > 100 µM (inactive) |  | > 100 µM (inactive)
O=C1CSc2nc3ccccc3n2/C=N\N1 | > 100 µM (inactive) | > 100 µM (inactive) | > 100 µM (inactive) | > 100 µM (inactive) | > 100 µM (inactive) | > 100 µM (inactive) | > 100 µM (inactive) | > 100 µM (inactive) | > 100 µM (inactive) | > 100 µM (inactive) | > 100 µM (inactive) |  | > 100 µM (inactive) |  | > 100 µM (inactive) | > 100 µM (inactive) | > 100 µM (inactive) |  | > 100 µM (inactive)
Cc1cc(Cl)ccc1NC(=O)C(=O)Cc1ccc([N+](=O)[O-])c([N+](=O)[O-])c1CC(=O)C(=O)Nc1ccc(Cl)cc1C | > 100 µM (inactive) |  | > 100 µM (inactive) | > 100 µM (inactive) | > 100 µM (inactive) | > 100 µM (inactive) | > 100 µM (inactive) | > 100 µM (inactive) | 61.1 µM (inactive) | 78.7 µM (inactive) | > 100 µM (inactive) | 70.3 µM (inactive) | > 100 µM (inactive) | > 100 µM (inactive) | > 100 µM (inactive) | > 100 µM (inactive) | > 100 µM (inactive) |  | 99.1 µM (inactive)
CC(Cn1c(=O)oc2ccccc21)N(C)C (stereo not given) | > 100 µM (inactive) | > 100 µM (inactive) | > 100 µM (inactive) | > 100 µM (inactive) | > 100 µM (inactive) | > 100 µM (inactive) | > 100 µM (inactive) | > 100 µM (inactive) | > 100 µM (inactive) | > 100 µM (inactive) |  | > 100 µM (inactive) | > 100 µM (inactive) | > 100 µM (inactive) | > 100 µM (inactive) | > 100 µM (inactive) | > 100 µM (inactive) | > 100 µM (inactive) | 
CC(C)CCCC(C)[C@H]1CCC2[C@@H]3CCC4Cc5nc6c(nc5C[C@]4(C)C3CC[C@@]21C)CC1CC[C@@H]2C(CC[C@@]3(C)C2CC[C@@H]3O)[C@@]1(C)C6 (stereo not given in full) | > 100 µM (inactive) | > 100 µM (inactive) | > 100 µM (inactive) | > 100 µM (inactive) | > 100 µM (inactive) | > 100 µM (inactive) | > 100 µM (inactive) | > 100 µM (inactive) | > 100 µM (inactive) | > 100 µM (inactive) | > 100 µM (inactive) | > 100 µM (inactive) | > 100 µM (inactive) | 62.2 µM (inactive) | > 100 µM (inactive) | > 100 µM (inactive) |  | > 100 µM (inactive) | 
CN(C)c1ccc(/C(Br)=C2\OC(=O)c3ccccc32)cc1 | > 100 µM (inactive) | 31.8 µM (inactive) | > 100 µM (inactive) | 39.2 µM (inactive) | 93.5 µM (inactive) | > 100 µM (inactive) | 77.6 µM (inactive) |  | 56.1 µM (inactive) | 51.4 µM (inactive) | > 100 µM (inactive) |  | 37.2 µM (inactive) | 80.7 µM (inactive) | 2.95 µM (inactive) | > 100 µM (inactive) | > 100 µM (inactive) |  | 
